Biological target: T1, Avi-tagged FL MALT-1 (Homo sapiens, UniProt Q9UDY8)
T1 construct: Avi-tagged FL MALT-1 (Pharmaron, stored at −70° C.); Avi-tag; purchased Pharmaron
T1 sequence (Q9UDY8 1-824): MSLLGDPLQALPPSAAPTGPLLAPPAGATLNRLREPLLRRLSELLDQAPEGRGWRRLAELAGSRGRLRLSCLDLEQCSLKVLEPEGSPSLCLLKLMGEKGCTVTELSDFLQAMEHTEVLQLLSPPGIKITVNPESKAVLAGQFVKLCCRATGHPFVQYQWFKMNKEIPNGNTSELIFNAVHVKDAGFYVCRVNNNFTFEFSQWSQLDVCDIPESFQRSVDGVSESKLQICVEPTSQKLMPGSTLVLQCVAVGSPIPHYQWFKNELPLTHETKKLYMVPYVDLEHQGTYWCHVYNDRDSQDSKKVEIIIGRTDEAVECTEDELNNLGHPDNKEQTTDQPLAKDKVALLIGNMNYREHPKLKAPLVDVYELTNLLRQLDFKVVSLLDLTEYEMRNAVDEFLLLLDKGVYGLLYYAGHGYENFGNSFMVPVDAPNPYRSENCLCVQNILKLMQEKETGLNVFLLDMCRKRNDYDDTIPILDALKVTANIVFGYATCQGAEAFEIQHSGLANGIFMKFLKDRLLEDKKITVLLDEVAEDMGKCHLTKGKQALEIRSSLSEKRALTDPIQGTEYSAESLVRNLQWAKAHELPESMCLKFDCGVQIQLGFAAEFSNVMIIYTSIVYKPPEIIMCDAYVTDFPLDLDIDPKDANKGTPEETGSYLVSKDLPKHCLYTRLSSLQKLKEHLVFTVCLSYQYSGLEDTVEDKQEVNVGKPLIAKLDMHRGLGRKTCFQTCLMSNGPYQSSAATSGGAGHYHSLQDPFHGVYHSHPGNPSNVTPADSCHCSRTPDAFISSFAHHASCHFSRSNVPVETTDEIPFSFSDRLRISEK
Test: MALT-1 Fluorogenic Peptide Cleavage Assay (MALT1 inhibition assay)
Type: biochemical
Conditions: Ac-LRSR-AMC peptide substrate; 30 min pre-incubation, 90 min reaction at room temperature; fluorescence
Procedure: Inhibition of MALT1 activity by a small molecule was evaluated using MALT-1 Fluorogenic Peptide Cleavage Assay. The assay utilizes a quenched AMC-labelled peptide that contains the MALT-1 recognition sequence and cleavage site (LRSR). MALT-1 mediated cleavage of the peptide relieves the quenching and leads to an increase in fluorescence at excitation (342 nm) and emission (441 nm).
The following reagents were obtained commercially and used to prepare standard reagent formulations as further described below: N-2-hydroxyethylpiperazine-N-2-ethane sulfonic acid (HEPES) (1 M, pH 7.5, stored at 4° C.), sodium citrate (stored at RT), tris(2-carboxyethyl)phosphine hydrochloride (T-CEP) (500 mM, stored at −20° C.), ethylenediaminetetraacetic acid (EDTA) (500 mM, stored at RT), dimethylsulfoxide (DMSO, stored at RT), 3-[(3-cholamidopropyl)dimethylammonio]-1-propane sulphate (CHAPS) (stored at RT), dimethylsulfoxide (DMSO), DMSO (Fisher Scientific, stored at RT), Avi-tagged FL MALT-1 (Pharmaron, stored at −70° C.), Ac-LRSR-AMC Peptide (SM Biochemicals, stored at −20° C.), and ultrapure water (MILLI-Q®).
The standard reagent formulations used in this assay were prepared and stored as follows. A 1.1 M solution of sodium citrate (161.3 g, 500 mL) was prepared and stored at room temperature. A 10% (w/v) CHAPS solution (2.0 g, 20 mL) was prepared and stored at 4° C. A 500 mM HEPES solution having pH of 6.89 was prepared from 200 mL of a 1 M HEPES solution having a pH of 7.5 using concentrated hydrochloric acid and brought to a final volume of 400 mL with MILLI-Q© H2O. The substrate, 10 mM Ac-LRSR-AMC Peptide, was prepared (10 mg, 1.370 mL DMSO) and stored at −20° C.
Compounds were plated to provide a 2% DMSO final concentration using a ProxiPlate-384 Plus F Black 384-shallow well microplate. The assay-ready plates were equilibrated to room temperature. A reaction buffer (30 mL total volume) was prepared by combining HEPES (pH 6.89, 25 mM, 1.5 mL), sodium citrate (660 mM, 18.0 mL), T-CEP (1 mM, 0.06 mL), EDTA (0.1 mM, 0.06 mL), CHAPS (0.05%, 0.15 mL), DMSO (2%, 0.6 mL), and MILLI-Q® H2O (10.23 mL; 9.63 mL when backfilled to 2% DMSO) followed by thorough mixing.
MALT-1 was thawed and kept on ice. Peptide substrate was thawed on the bench under ambient conditions. A MALT-1 enzyme working stock was prepared from Avi-tagged FL MALT-1 (40 nM in a prepared reagent volume of […]) and the reaction buffer (13.0 mL). MALT1 working stock (5 μL) was added to each well of the microplate. MALT-1 was pre-incubated with compounds for 30 minutes at room temperature.
Two substrate working stocks (Km and 10×Km) were prepared. The 1×Km substrate was prepared from Ac-LRSR-AMC Peptide (50 μM in a prepared reagent volume of […]) and the reaction buffer (6.965 mL). The 10×Km substrate was prepared from Ac-LRSR-AMC Peptide ([…] in a prepared reagent volume of 196.0 μL) and the reaction buffer (6.804 mL). The reaction was initiated by the addition of substrate working stock (5 μL, 50 μM) to Km plates and the addition of substrate working stock (5 μL 280 μM) to 10×Km plates. The plates were covered and incubated on the bench at room temperature for 90 minutes.
Fluorescence intensity was determined using a CLARIOstar microplate reader (BMG LABTECH) using the optimised AMC mode. Before taking readings, a 70% gain was applied on the neutral control well. Compound data were normalised to % Inhibition and used to plot sigmoidal concentration response curves to yield various parameters including IC50.

CN(CCO)C(=O)c1ccc(NC(=O)c2snc(-c3ccccc3)c2C2CC2)cc1Cl [I-24, N-(3-CHLORO-4-((2-HYDROXYETHYL) (METHYL)CARBAMOYL)PHENYL)-4-CYCLOPROPYL-3-PHENYLISOTHIAZOLE-5-CARBOXAMIDE]
IC50: ≤ 400 nM

COCCN(C)C(=O)c1ccc(NC(=O)c2snc(-c3ccccc3)c2C2CC2)cc1Cl [I-25, N-(3-CHLORO-4-((2-METHOXYETHYL) (METHYL) CARBAMOYL)PHENYL)-4-CYCLOPROPYL-3-PHENYL-ISOTHIAZOLE-5-CARBOXAMIDE]
IC50: ≤ 400 nM

O=C(Nc1ccnc(C(F)(F)F)c1)c1snc(-c2ccccc2)c1C1CC1 [I-26, 3-PHENYL-4-CYCLOPROPYL-N-(2-(TRIFLUOROMETHYL)PYRIDIN-4-YL)ISOTHIAZOLE-5-CARBOXAMIDE]
IC50: ≤ 400 nM

N#Cc1cc(NC(=O)c2snc(-c3ccccn3)c2C2CC2)cnc1-n1nccn1 [I-27, N-(5-CYANO-6-(2H-1,2,3-TRIAZOL-2-YL) PYRIDIN-3-YL)-4-CYCLOPROPYL-3-(PYRIDIN-2-YL)ISOTHIAZOLE-5-CARBOXAMIDE]
IC50: ≤ 400 nM

N#Cc1cc(NC(=O)c2snc(-c3ncccc3Cl)c2C2CC2)cnc1-n1nccn1 [I-28, 3-(3-CHLOROPYRIDIN-2-YL)-N-(5-CYANO-6-(2H-1,2,3-TRIAZOL-2-YL)PYRIDIN-3-YL)-4-CYCLOPROPYLISOTHIAZOLE-5-CARBOXAMIDE]
IC50: ≤ 400 nM

CN(C)c1ncc(NC(=O)c2snc(-c3ccccc3)c2C2CC2)cc1C#N [I-29, N-(5-CYANO-6-(DIMETHYLAMINO)PYRIDIN-3-YL)-4-CYCLOPROPYL-3-PHENYLISOTHIAZOLE-5-CARBOXAMIDE]
IC50: ≤ 400 nM

N#Cc1cncc(NC(=O)c2snc(-c3ccccc3)c2C2CC2)c1 [I-30, N-(5-CYANOPYRIDIN-3-YL)-4-CYCLOPROPYL-3-PHENYLISOTHIAZOLE-5-CARBOXAMIDE]
IC50: ≤ 400 nM

O=C(Nc1cnc(-n2nccn2)c(Cl)c1)c1snc(-c2cnc3ccccn23)c1C(F)(F)F [I-31]
IC50: ≤ 400 nM

N#Cc1cc(NC(=O)c2snc(-c3ccccc3)c2C2CC2)ccc1C(=O)N1CC(O)C1 [I-32]
IC50: ≤ 400 nM

Cc1ncc(NC(=O)c2snc(-c3ccccc3)c2C2CC2)cc1Cl [I-33]
IC50: ≤ 400 nM

N#Cc1cc(NC(=O)c2snc(C3CCOCC3)c2C(F)(F)F)cnc1-n1nccn1 [I-34]
IC50: ≤ 400 nM

O=C(Nc1cnc(-n2nccn2)c(Cl)c1)c1snc(-c2cccc3ncccc23)c1C(F)(F)F [I-35, N-(5-CHLORO-6-(2H-1,2,3-TRIAZOL-2-YL) PYRIDIN-3-YL)-3-(QUINOLIN-5-YL)-4-(TRIFLUOROMETHYL)ISOTHIAZOLE-5-CARBOXAMIDE]
IC50: ≤ 400 nM

Cn1cc(-c2nsc(C(=O)Nc3cnc(-n4nccn4)c(C#N)c3)c2C(F)(F)F)ccc1=O [I-36, N-(5-CYANO-6-(2H-1,2,3-TRIAZOL-2-YL)PYRIDIN-3-YL)-3-(1-METHYL-6-OXO-1,6-DIHYDROPYRIDIN-3-YL)-4-(TRIFLUORO-METHYL)ISOTHIAZOLE-5-CARBOXAMIDE]
IC50: ≤ 400 nM

Cn1cc(-c2nsc(C(=O)Nc3cnc(-n4nccn4)c(C#N)c3)c2C(F)(F)F)cn1 [I-37, N-(5-CYANO-6-(2H-1,2,3-TRIAZOL-2-YL)PYRIDIN-3-YL)-3-(1-METHYL-1H-PYRAZOL-4-YL)-4-(TRIFLUORO-METHYL)ISOTHIAZOLE-5-CARBOXAMIDE]
IC50: 400 to 1000 nM

CC(C)c1nsc(C(=O)Nc2cnc(-n3nccn3)c(C#N)c2)c1C(F)(F)F [I-38, N-(5-CYANO-6-(2H-1,2,3-TRIAZOL-2-YL) PYRIDIN-3-YL)-3-ISOPROPYL-4-(TRIFLUOROMETHYL)ISOTHIAZOLE-5-CARBOXAMIDE]
IC50: ≤ 400 nM

COc1c(-c2ccccc2)nsc1C(=O)Nc1cnc(-n2nccn2)c(Cl)c1 [I-39, N-(5-CHLORO-6-(2H-1,2,3-TRIAZOL-2-YL) PYRIDIN-3-YL)-4-METHOXY-3-PHENYLISOTHIAZOLE-5-CARBOXAMIDE]
IC50: ≤ 400 nM

COc1ncc(NC(=O)c2snc(-c3ccccc3)c2C2CC2)cc1Cl [I-40, N-(5-CHLORO-6-METHOXYPYRIDIN-3-YL)-4-CYCLOPROPYL-3-PHENYLISOTHIAZOLE-5-CARBOXAMIDE]
IC50: ≤ 400 nM

Cc1cc(NC(=O)c2snc(-c3ccccc3)c2C2CC2)cn(C)c1=O [I-41]
IC50: > 2500 nM

O=C(Nc1cncc(Cl)c1)c1snc(-c2ccccc2)c1C1CC1 [I-42, N-(5-CHLOROPYRIDIN-3-YL)-4-CYCLOPROPYL-3-PHENYLISOTHIAZOLE-5-CARBOXAMIDE]
IC50: ≤ 400 nM

O=C(Nc1cncc(F)c1)c1snc(-c2ccccc2)c1C1CC1 [I-43, 4-CYCLOPROPYL-N-(5-FLUOROPYRIDIN-3-YL)-3-PHENYLISOTHIAZOLE-5-CARBOXAMIDE]
IC50: > 2500 nM

COc1cncc(NC(=O)c2snc(-c3ccccc3)c2C2CC2)c1 [I-44, 4-CYCLOPROPYL-N-(5-METHOXYPYRIDIN-3-YL)-3-PHENYLISOTHIAZOLE-5-CARBOXAMIDE]
IC50: > 2500 nM

Cc1cncc(NC(=O)c2snc(-c3ccccc3)c2C2CC2)c1 [I-45, 4-CYCLOPROPYL-N-(5-METHYLPYRIDIN-3-YL)-3-PHENYLISOTHIAZOLE-5-CARBOXAMIDE]
IC50: 1000 to 2500 nM

CN(C)c1ccc(NC(=O)c2snc(-c3ccccc3)c2C2CC2)cn1 [I-46, 4-CYCLOPROPYL-N-(6-(DIMETHYLAMINO) PYRIDIN-3-YL)-3-PHENYLISOTHIAZOLE-5-CARBOXAMIDE]
IC50: > 2500 nM

Cn1ncc2cc(NC(=O)c3snc(-c4ccccc4)c3C3CC3)cnc21 [I-47, 4-CYCLOPROPYL-N-(1-METHYL-1H-PYRAZOLO [3,4-B]PYRIDIN-5-YL)-3-PHENYLISOTHIAZOLE-5-CARBOXAMIDE]
IC50: 400 to 1000 nM

Cc1cc(NC(=O)c2snc(-c3ccccc3)c2C2CC2)cnc1-n1ccnn1 [I-48, 4-CYCLOPROPYL-N-(5-METHYL-6-(1H-1,2,3-TRIAZOL-1-YL)PYRIDIN-3-YL)-3-PHENYLISOTHIAZOLE-5-CARBOXAMIDE]
IC50: ≤ 400 nM

O=C(Nc1ccc(C(=O)N2CC(O)C2)c(Cl)c1)c1snc(-c2ncccc2Cl)c1C1CC1 [I-49, N-(3-CHLORO-4-(3-HYDROXYAZETIDINE-1-CARBONYL)PHENYL)-3-(3-CHLOROPYRIDIN-2-YL)-4-CYCLOPROPYL-ISOTHIAZOLE-5-CARBOXAMIDE]
IC50: 1000 to 2500 nM

CN(C)C(=O)c1ncc(NC(=O)c2snc(-c3ccccc3)c2C2CC2)cc1Cl [I-50, N-(5-CHLORO-6-(DIMETHYLCARBAMOYL) PYRIDIN-3-YL)-4-CYCLOPROPYL-3-PHENYLISOTHIAZOLE-5-CARBOXAMIDE]
IC50: ≤ 400 nM

— patent US20260124222A1, “ISOTHIAZOLYLCARBOXAMIDE COMPOUNDS AND THEIR USE IN THERAPY” (HOTSPOT THERAPEUTICS, INC., priority 2022, published 2026)
